Assay [1] addresses T1, Amine oxidase [copper-containing] 2 (Homo sapiens, UniProt O75106).
T1 sequence (O75106 whole entry): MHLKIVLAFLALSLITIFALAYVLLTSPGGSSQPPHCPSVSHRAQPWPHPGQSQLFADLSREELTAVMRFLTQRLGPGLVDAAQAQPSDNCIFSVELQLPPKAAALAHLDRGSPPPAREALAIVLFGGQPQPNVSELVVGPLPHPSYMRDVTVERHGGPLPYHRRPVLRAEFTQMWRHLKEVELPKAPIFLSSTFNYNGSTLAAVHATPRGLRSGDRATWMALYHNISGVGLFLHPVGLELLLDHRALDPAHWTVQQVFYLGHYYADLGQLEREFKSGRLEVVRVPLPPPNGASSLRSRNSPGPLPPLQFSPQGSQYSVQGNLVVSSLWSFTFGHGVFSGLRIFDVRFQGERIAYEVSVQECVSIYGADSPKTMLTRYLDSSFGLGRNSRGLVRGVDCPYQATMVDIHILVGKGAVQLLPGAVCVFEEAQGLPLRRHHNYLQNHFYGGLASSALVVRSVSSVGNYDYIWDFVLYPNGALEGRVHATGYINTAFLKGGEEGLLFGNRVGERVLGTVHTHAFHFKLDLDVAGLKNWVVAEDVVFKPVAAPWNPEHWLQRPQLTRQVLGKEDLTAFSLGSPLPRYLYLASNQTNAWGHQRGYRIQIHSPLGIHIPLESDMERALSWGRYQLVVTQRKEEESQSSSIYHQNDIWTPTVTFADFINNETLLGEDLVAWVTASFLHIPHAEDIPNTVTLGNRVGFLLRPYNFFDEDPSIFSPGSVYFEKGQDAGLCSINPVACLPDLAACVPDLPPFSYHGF
Briefly: AOC2 Biochemical Assay. Here is the method: Cells are cultured for 3 days in EMEM culture medium containing 10% FCS (#04-00-1A, Biological Industries). After washing twice with ice cold PBS, cells are lysed by mechanic homogenation and cleared supernatants are shock frozen in liquid nitrogen and stored at −80° C.For the determination of AOC2 enzymatic activity cell lysates are thawed on ice and 1:1 diluted with reaction buffer. An Aliquot of 45 μL is added to the compound dilution and incubated for 30 min at 37° C.

Assay [2] has as its target T2, Amine oxidase [copper-containing] 3 (Homo sapiens, UniProt Q16853).
T2 sequence (Q16853 whole entry): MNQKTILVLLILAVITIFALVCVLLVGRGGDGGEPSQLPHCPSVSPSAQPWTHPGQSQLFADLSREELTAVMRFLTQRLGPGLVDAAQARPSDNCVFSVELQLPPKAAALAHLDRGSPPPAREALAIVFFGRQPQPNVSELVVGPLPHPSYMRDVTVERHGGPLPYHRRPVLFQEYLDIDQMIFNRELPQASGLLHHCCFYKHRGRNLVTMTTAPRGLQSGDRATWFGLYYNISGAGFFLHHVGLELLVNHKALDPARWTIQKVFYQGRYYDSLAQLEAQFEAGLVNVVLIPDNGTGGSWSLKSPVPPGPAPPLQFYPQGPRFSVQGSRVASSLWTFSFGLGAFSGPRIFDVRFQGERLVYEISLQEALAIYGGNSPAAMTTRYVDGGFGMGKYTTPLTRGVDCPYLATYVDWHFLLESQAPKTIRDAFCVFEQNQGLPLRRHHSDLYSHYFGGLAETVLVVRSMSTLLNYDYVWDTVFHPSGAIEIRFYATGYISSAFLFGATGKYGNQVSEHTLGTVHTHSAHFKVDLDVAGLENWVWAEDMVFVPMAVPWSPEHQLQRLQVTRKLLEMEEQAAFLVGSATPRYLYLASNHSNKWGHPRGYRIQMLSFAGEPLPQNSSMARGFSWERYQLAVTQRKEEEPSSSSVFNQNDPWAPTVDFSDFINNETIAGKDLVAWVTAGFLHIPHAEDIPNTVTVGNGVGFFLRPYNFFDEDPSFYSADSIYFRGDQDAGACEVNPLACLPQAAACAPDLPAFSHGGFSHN
Briefly: AOC3 Biochemical Assay. As to the method:
Recombinant CHO cells, overexpressing the human (1500 cells/well), mouse (1000 cells/well) or rat (500 cells/well) AOC3 enzyme are diluted in reaction buffer and added in a volume of 15 μL to the wells. After incubation for 20 minutes at 37° C., 2 μL of MAO substrate (dissolved in DMSO at 16 mM, adjusted to assay concentration in reaction buffer to a final assay concentration of 20 μM) is added and further incubated for 60 minutes at 37° C. The turnover of the substrate is determined by the addition of 20 μL of the detection-mix which was generated by the addition of reconstitution buffer with esterase (PROMEGA, #V1402) to the luciferine detection reagent (PROMEGA, #V1402).

For assay [3], the target named is T3, Diamine oxidase [copper-containing] (Homo sapiens, UniProt P19801).
T3 sequence (P19801 whole entry): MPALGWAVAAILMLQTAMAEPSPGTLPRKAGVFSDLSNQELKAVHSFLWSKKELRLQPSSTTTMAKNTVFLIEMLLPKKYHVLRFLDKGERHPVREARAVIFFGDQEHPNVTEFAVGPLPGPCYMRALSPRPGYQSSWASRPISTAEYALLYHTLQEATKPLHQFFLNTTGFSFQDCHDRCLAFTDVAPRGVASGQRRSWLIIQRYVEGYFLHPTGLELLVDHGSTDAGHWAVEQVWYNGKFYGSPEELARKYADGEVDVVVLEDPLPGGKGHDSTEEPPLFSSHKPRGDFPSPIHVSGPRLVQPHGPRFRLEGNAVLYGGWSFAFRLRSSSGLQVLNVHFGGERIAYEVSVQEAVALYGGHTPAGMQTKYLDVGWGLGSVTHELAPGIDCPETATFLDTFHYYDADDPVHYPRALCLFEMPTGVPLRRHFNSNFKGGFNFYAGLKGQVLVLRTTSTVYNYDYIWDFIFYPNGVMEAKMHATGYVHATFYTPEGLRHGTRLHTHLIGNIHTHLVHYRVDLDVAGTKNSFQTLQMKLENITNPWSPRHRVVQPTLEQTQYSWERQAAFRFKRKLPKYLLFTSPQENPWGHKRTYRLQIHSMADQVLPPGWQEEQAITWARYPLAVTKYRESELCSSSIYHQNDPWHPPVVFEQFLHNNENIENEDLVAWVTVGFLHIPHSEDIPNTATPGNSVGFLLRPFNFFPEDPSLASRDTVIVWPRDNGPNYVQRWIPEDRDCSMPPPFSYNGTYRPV
Briefly: AOC1 Biochemical Assay. Here is the method: An aliquot of 3 μL of the compound dilution is added to a 384 well plate (Optiplate, PS, flat bottom F, black, PERKIN ELMER, #6007270) in a DMSO concentration of 6.6%.An AOC1 enzyme aliquot (#8297-AO-010, R&D Systems) is thawed on ice, diluted in reaction buffer and added in a volume of 7 μL to the wells to give a final assay concentration of 1 ng/well. After incubation of inhibitor and enzyme for 30 minutes at 37° C., the enzymatic reaction is started with the addition of 10 μL of Amplex Red reaction mix (final assay concentration: 100 mM sodiumphosphate, 120 μM Amplex Red reagent (#A22177 Molecular Probes), 1.5 U/mL Horseradish Peroxidase (#P8375 Sigma-Aldrich), 200 μM putrescine (#P7505 Sigma-Alrdich), 0.05% Pluronic F-127 (#P3000MP Sigma-Aldrich), pH 7.4, 37° C.).After an incubation for 30 minutes at 37° C. the turnover of the substrate is determined directly (or after the addition of an excess of an amine-oxidase inhibitor) with a fluorescence reader (Ex 540 nm/Em 590 nm) like Envision 2104 Multilabel Reader (PERKIN ELMER).

For orientation: IC50 means the concentration needed to halve the response being measured. Higher therefore signals weaker potency in that assay. Regarding `CC(C)(O)NC(=O)[C@H]1CCN(S(=O)(=O)c2ccc(OC/C(=C/F)CN)nc2)C1` [US12178809, Example 05], the IC50 in assay [1] is 0.629 µM; in assay [2] it was 0.073 µM; in assay [3], above 50 µM.
